From publication PMC8000041, “New Insights into the Metabolism of the Flavanones Eriocitrin and Hesperidin: A Comparative Human Pharmacokinetic Study” (Antioxidants, 2021)

assay: Urinary excretion of flavanone-derived metabolites after single intake of lemon or orange extract (UPLC-ESI-QTOF-MS); assay type: in vivo, human; conditions: lemon extract (3.1 g, 260 mg eriocitrin), urine fraction 0-4 h, mean ± SD
From the text: Secondary endpoints involved the evaluation of post-prandial changes in several biomarkers dealing with metabolism, inflammation, and oxidative stress after a high-fat-high-sugars meal. The design was a randomized pharmacokinetic, double-blind, crossover, single-dose trial consisted of 2 test-phases. The volunteers were randomly allocated into two groups using a computerized random number list. Each group consumed one of the citrus extracts by following a test-phase that lasted for 1 day for blood sampling and urine collection, a 2-week washout period between each test phase, and crossover before consuming the other extract. The volunteers were instructed to avoid the consumption of flavanone-containing products, from a list provided by the researchers, for 1 week before the study and during the wash-out phase (citrus fruit juices, tomatoes, tomato-based sauces (like ‘ketchup’), peppers, almonds, etc.). […] The 3 capsules provided a total of 1.95 g orange extract, containing 260 mg hesperidin, and 3.1 g lemon extract, containing 260 mg eriocitrin. […] Untreated urine samples were aliquoted and frozen at −80 °C for up to 4 weeks until analyses, avoiding freeze-thaw cycles to avoid metabolites’ deconjugation. Moreover, three measurements of blood pressure and heart rate were taken before each time-point of blood withdrawal. […] A previously validated method for analyzing phenolic metabolites in biological samples, including flavanone-derived metabolites, was used. […] After centrifugation at 14,000× g for 10 min at 4 °C, the supernatant was evaporated in a speed vacuum concentrator. Finally, samples were re-suspended in 100 µL of methanol, filtered through a 0.22 µm cellulose filters before analysis by UPLC- ESI-QTOF-MS. […] A targeted screening strategy was applied to identify metabolites that could be present after consuming the citrus extracts. Twenty-eight possible compounds were browsed in all the samples. The list of compounds included the polyphenols present in the extracts, with particular focus on the flavanone rutinosides hesperidin and eriocitrin, their respective aglycones hesperetin, and eriodictyol, as well as their derived phase-II conjugates (glucuronides, sulfates, sulfoglucuronides, etc.). The exact mass of each proposed compound was extracted using an extraction window of 0.01 m/z. The metabolites hesperetin 7-O-glucuronide, hesperetin 3′-O-glucuronide, hesperetin 3-O-sulfate, naringenin 4′-O-glucuronide, and naringenin 7′-O-glucuronide were quantified with their corresponding standards. […] The parent phenolic compounds were quantified with their corresponding standards. In the case of some relevant conjugated metabolites, which standards were not available (eriodictyol and homoeriodictyol conjugates), their quantification was achieved by using relative response factors (RRFs) as previously described. Briefly, RRFs are useful to check the different responses of metabolites in the mass spectrometer vs. their UV signal. While the ionization response of free vs. conjugated forms is usually very different, their UV signal response is quite similar. To this purpose, we injected in a HPLC-DAD-ESI-Q (MS) the plasma samples (n = 5) with the highest concentrations of those conjugated metabolites. Concentrations were calculated by integrating the area from their corresponding UV peaks and compared with the UV peak area of a known concentration of their corresponding available parent compounds (eriodictyol and homoeriodictyol). The concentrations calculated were used to compare the MS response for each conjugated-aglycone pair.

Structure (SMILES) | Urinary excretion F1 [µg/mg creatinine]
O=C1CC(c2ccc(O)cc2)Oc2cc(OC3OC(C(=O)O)C(O)C(O)C3O)cc(O)c21 (stereo not shown) [M3, Naringenin 7-O-glucuronide] | 1.0 ± 0.7

same assay, conditions: lemon extract, sum of fractions F1-F4 (24 h), mean ± SD

Structure (SMILES) | Urinary excretion Total F [µg/mg creatinine]
O=C1CC(c2ccc(O)cc2)Oc2cc(OC3OC(C(=O)O)C(O)C(O)C3O)cc(O)c21 (stereo not shown) [M3, Naringenin 7-O-glucuronide] | 5.7 ± 6.9

same assay, conditions: lemon extract, urine fraction 4-8 h, mean ± SD

Structure (SMILES) | Urinary excretion F2 [µg/mg creatinine]
O=C1CC(c2ccc(O)cc2)Oc2cc(OC3OC(C(=O)O)C(O)C(O)C3O)cc(O)c21 (stereo not shown) [M3, Naringenin 7-O-glucuronide] | 2.6 ± 4.0

same assay, conditions: lemon extract, urine fraction 8-10 h, mean ± SD

Structure (SMILES) | Urinary excretion F3 [µg/mg creatinine]
O=C1CC(c2ccc(O)cc2)Oc2cc(OC3OC(C(=O)O)C(O)C(O)C3O)cc(O)c21 (stereo not shown) [M3, Naringenin 7-O-glucuronide] | 1.7 ± 1.9

same assay, conditions: lemon extract, urine fraction 10-24 h, mean ± SD

Structure (SMILES) | Urinary excretion F4 [µg/mg creatinine]
O=C1CC(c2ccc(O)cc2)Oc2cc(OC3OC(C(=O)O)C(O)C(O)C3O)cc(O)c21 (stereo not shown) [M3, Naringenin 7-O-glucuronide] | 0.3 ± 0.3

same assay, conditions: orange extract (1.95 g, 260 mg hesperidin), urine fraction 0-4 h, mean ± SD

Structure (SMILES) | Urinary excretion F1 [µg/mg creatinine]
O=C1CC(c2ccc(O)cc2)Oc2cc(OC3OC(C(=O)O)C(O)C(O)C3O)cc(O)c21 (stereo not shown) [M3, Naringenin 7-O-glucuronide] | 0.1 ± 0.1

same assay, conditions: orange extract, sum of fractions F1-F4 (24 h), mean ± SD

Structure (SMILES) | Urinary excretion Total F [µg/mg creatinine]
O=C1CC(c2ccc(O)cc2)Oc2cc(OC3OC(C(=O)O)C(O)C(O)C3O)cc(O)c21 (stereo not shown) [M3, Naringenin 7-O-glucuronide] | 0.7 ± 1.5

same assay, conditions: orange extract, urine fraction 4-8 h, mean ± SD

Structure (SMILES) | Urinary excretion F2 [µg/mg creatinine]
O=C1CC(c2ccc(O)cc2)Oc2cc(OC3OC(C(=O)O)C(O)C(O)C3O)cc(O)c21 (stereo not shown) [M3, Naringenin 7-O-glucuronide] | 0.2 ± 0.6

same assay, conditions: orange extract, urine fraction 8-10 h, mean ± SD

Structure (SMILES) | Urinary excretion F3 [µg/mg creatinine]
O=C1CC(c2ccc(O)cc2)Oc2cc(OC3OC(C(=O)O)C(O)C(O)C3O)cc(O)c21 (stereo not shown) [M3, Naringenin 7-O-glucuronide] | 0.2 ± 0.2

same assay, conditions: orange extract, urine fraction 10-24 h, mean ± SD

Structure (SMILES) | Urinary excretion F4 [µg/mg creatinine]
O=C1CC(c2ccc(O)cc2)Oc2cc(OC3OC(C(=O)O)C(O)C(O)C3O)cc(O)c21 (stereo not shown) [M3, Naringenin 7-O-glucuronide] | 0.2 ± 0.3

same assay, conditions: urine, after consuming lemon extract, n = 16 volunteers

Structure (SMILES) | Occurrence Urine LE (number of volunteers in whom the metabolite was detected)
O=C1CC(c2ccc(O)cc2)Oc2cc(OC3OC(C(=O)O)C(O)C(O)C3O)cc(O)c21 (stereo not shown) [M3, Naringenin 7-O-glucuronide] | 16

same assay, conditions: urine, after consuming orange extract, n = 16 volunteers

Structure (SMILES) | Occurrence Urine OE (number of volunteers in whom the metabolite was detected)
O=C1CC(c2ccc(O)cc2)Oc2cc(OC3OC(C(=O)O)C(O)C(O)C3O)cc(O)c21 (stereo not shown) [M3, Naringenin 7-O-glucuronide] | 16

assay: Plasma metabolites and pharmacokinetics after single intake of lemon or orange extract (UPLC-ESI-QTOF-MS, non-compartmental analysis); assay type: in vivo, human; conditions: after consuming lemon extract, n = 16 volunteers
From the text: Secondary endpoints involved the evaluation of post-prandial changes in several biomarkers dealing with metabolism, inflammation, and oxidative stress after a high-fat-high-sugars meal. The design was a randomized pharmacokinetic, double-blind, crossover, single-dose trial consisted of 2 test-phases. The volunteers were randomly allocated into two groups using a computerized random number list. Each group consumed one of the citrus extracts by following a test-phase that lasted for 1 day for blood sampling and urine collection, a 2-week washout period between each test phase, and crossover before consuming the other extract. The volunteers were instructed to avoid the consumption of flavanone-containing products, from a list provided by the researchers, for 1 week before the study and during the wash-out phase (citrus fruit juices, tomatoes, tomato-based sauces (like ‘ketchup’), peppers, almonds, etc.). […] The 3 capsules provided a total of 1.95 g orange extract, containing 260 mg hesperidin, and 3.1 g lemon extract, containing 260 mg eriocitrin. […] Plasma samples were obtained by centrifugation of peripheral venous blood at 14,000× g for 15 min at 4 °C and immediately frozen at −80 °C. Glucose, total cholesterol, HDL-cholesterol, LDL-cholesterol, triglycerides, insulin, homeostatic model assessment insulin resistance (HOMA-IR), gamma-glutamyl transferase (GGT), and alanine aminotransferase (ALT) were determined as previously reported. […] A previously validated method for analyzing phenolic metabolites in biological samples, including flavanone-derived metabolites, was used. […] After centrifugation at 14,000× g for 10 min at 4 °C, the supernatant was evaporated in a speed vacuum concentrator. Finally, samples were re-suspended in 100 µL of methanol, filtered through a 0.22 µm cellulose filters before analysis by UPLC- ESI-QTOF-MS. A targeted screening strategy was applied to identify metabolites that could be present after consuming the citrus extracts. Twenty-eight possible compounds were browsed in all the samples. The list of compounds included the polyphenols present in the extracts, with particular focus on the flavanone rutinosides hesperidin and eriocitrin, their respective aglycones hesperetin, and eriodictyol, as well as their derived phase-II conjugates (glucuronides, sulfates, sulfoglucuronides, etc.). The exact mass of each proposed compound was extracted using an extraction window of 0.01 m/z. The metabolites hesperetin 7-O-glucuronide, hesperetin 3′-O-glucuronide, hesperetin 3-O-sulfate, naringenin 4′-O-glucuronide, and naringenin 7′-O-glucuronide were quantified with their corresponding standards. […] The parent phenolic compounds were quantified with their corresponding standards. In the case of some relevant conjugated metabolites, which standards were not available (eriodictyol and homoeriodictyol conjugates), their quantification was achieved by using relative response factors (RRFs) as previously described. Briefly, RRFs are useful to check the different responses of metabolites in the mass spectrometer vs. their UV signal. While the ionization response of free vs. conjugated forms is usually very different, their UV signal response is quite similar. To this purpose, we injected in a HPLC-DAD-ESI-Q (MS) the plasma samples (n = 5) with the highest concentrations of those conjugated metabolites. Concentrations were calculated by integrating the area from their corresponding UV peaks and compared with the UV peak area of a known concentration of their corresponding available parent compounds (eriodictyol and homoeriodictyol). The concentrations calculated were used to compare the MS response for each conjugated-aglycone pair. Statistical analyses were carried out using the SPSS Software, version 23.0 (SPSS Inc., Chicago, IL, USA). Data are expressed as mean ± SD. The empirical distribution of data with the normality assumption was tested with the Shapiro-Wilk test. […]

Structure (SMILES) | Occurrence Plasma LE (number of volunteers in whom the metabolite was detected)
O=C1CC(c2ccc(O)cc2)Oc2cc(OC3OC(C(=O)O)C(O)C(O)C3O)cc(O)c21 (stereo not shown) [M3, Naringenin 7-O-glucuronide] | 16

same assay, conditions: after consuming orange extract, n = 16 volunteers

Structure (SMILES) | Occurrence Plasma OE (number of volunteers in whom the metabolite was detected)
O=C1CC(c2ccc(O)cc2)Oc2cc(OC3OC(C(=O)O)C(O)C(O)C3O)cc(O)c21 (stereo not shown) [M3, Naringenin 7-O-glucuronide] | 14

same assay, conditions: after lemon extract, mean ± SD

Structure (SMILES) | Tmax [h]
O=C1CC(c2ccc(O)cc2)Oc2cc(OC3OC(C(=O)O)C(O)C(O)C3O)cc(O)c21 (stereo not shown) [M3, Naringenin 7-O-glucuronide] | 5.4 ± 2.5

same assay, conditions: after orange (hesperidin) extract, mean ± SD

Structure (SMILES) | Tmax [h]
O=C1CC(c2ccc(O)cc2)Oc2cc(OC3OC(C(=O)O)C(O)C(O)C3O)cc(O)c21 (stereo not shown) [M3, Naringenin 7-O-glucuronide] | 7.3 ± 2.2

same assay, conditions: human, oral, 1.95 g, after orange (hesperidin) extract, mean ± SD

Structure (SMILES) | Cmax [nM]
O=C1CC(c2ccc(O)cc2)Oc2cc(OC3OC(C(=O)O)C(O)C(O)C3O)cc(O)c21 (stereo not shown) [M3, Naringenin 7-O-glucuronide] | 4.7 ± 3.6

same assay, conditions: human, oral, 1.95 g, after orange (hesperidin) extract, mean ± SD, read-out: AUC0-t

Structure (SMILES) | AUC(0-t) [µM·h]
O=C1CC(c2ccc(O)cc2)Oc2cc(OC3OC(C(=O)O)C(O)C(O)C3O)cc(O)c21 (stereo not shown) [M3, Naringenin 7-O-glucuronide] | 0.0188 ± 0.019

same assay, conditions: human, oral, 1.95 g, after orange (hesperidin) extract, mean ± SD, read-out: Tmax

Structure (SMILES) | Tmax [h]
O=C1CC(c2ccc(O)cc2)Oc2cc(OC3OC(C(=O)O)C(O)C(O)C3O)cc(O)c21 (stereo not shown) [M3, Naringenin 7-O-glucuronide] | 7.5

same assay, conditions: human, oral, 3.1 g, after lemon extract, mean ± SD

Structure (SMILES) | Cmax [nM]
O=C1CC(c2ccc(O)cc2)Oc2cc(OC3OC(C(=O)O)C(O)C(O)C3O)cc(O)c21 (stereo not shown) [M3, Naringenin 7-O-glucuronide] | 56.7 ± 44.2

same assay, conditions: human, oral, 3.1 g, after lemon extract, mean ± SD, read-out: AUC0-t

Structure (SMILES) | AUC(0-t) [µM·h]
O=C1CC(c2ccc(O)cc2)Oc2cc(OC3OC(C(=O)O)C(O)C(O)C3O)cc(O)c21 (stereo not shown) [M3, Naringenin 7-O-glucuronide] | 0.203 ± 0.187

same assay, conditions: human, oral, 3.1 g, after lemon extract, mean ± SD, read-out: Tmax

Structure (SMILES) | Tmax [h]
O=C1CC(c2ccc(O)cc2)Oc2cc(OC3OC(C(=O)O)C(O)C(O)C3O)cc(O)c21 (stereo not shown) [M3, Naringenin 7-O-glucuronide] | 5.5
